Structures are written as SMILES.

The target of this test is T1, hNK2 receptor (Homo sapiens, UniProt P21452).
T1 construct: host or cells: CHO cells
T1 sequence (P21452 1-398): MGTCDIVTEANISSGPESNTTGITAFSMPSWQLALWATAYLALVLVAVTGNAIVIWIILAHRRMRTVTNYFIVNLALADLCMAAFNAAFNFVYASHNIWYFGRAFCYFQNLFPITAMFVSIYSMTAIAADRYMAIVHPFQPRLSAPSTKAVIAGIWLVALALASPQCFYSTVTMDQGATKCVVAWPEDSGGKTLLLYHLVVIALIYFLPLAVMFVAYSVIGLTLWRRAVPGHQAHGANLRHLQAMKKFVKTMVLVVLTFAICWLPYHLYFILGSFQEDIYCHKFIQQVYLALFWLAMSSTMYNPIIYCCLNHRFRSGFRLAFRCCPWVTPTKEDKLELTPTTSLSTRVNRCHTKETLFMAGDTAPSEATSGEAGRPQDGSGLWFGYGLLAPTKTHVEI
Put plainly: Radio-ligand ([125I]-NKA) receptor binding inhibitory activity using membrane fraction of hNK2 receptor-expressing CHO cell. The conditions noted are these: membrane fraction of hNK2 receptor-expressing CHO cells, 25° C., 30 min. Put shortly: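 Membranes from hNK2-expressing CHO cells (20 μg/mL suspension) incubated with test compound and [125I]-NKA ([…] solution as added) in Tris-HCl pH 7.4 with BSA, protease inhibitors, 3 mM MnCl2, 25 °C, 30 min. Bound radioactivity by GF/C filtration and scintillation; inhibition expressed relative to specific binding (total minus unlabeled-NKA non-specific).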
As a reminder, the IC50 is the concentration that gives 50% inhibition. A high value points to weaker potency. On to `O=C(N[C@@H]1C2CCC(CC2)[C@@H]1C(=O)N1CC[C@@H]2[C@H](c3ccccc3)Nc3ccccc3[C@@H]21)c1ccccc1` [Example 178, N-((2R,3S)-3-{[(3aR,4R,9bR)-4-Phenyl-2,3,3a,4,5,9b-hexahydro-1H-pyrrolo[3,2-c]quinolin-1-yl]carbonyl}bicyclo[2.2.2]oct-2-yl)benzamide], for which the IC50 is less than 10 nM. `COc1ccc(C(=O)N[C@@H]2CCCC[C@@H]2C(=O)N2CC[C@@H]3[C@H](C4CC4)Nc4ccccc4[C@@H]32)cc1` [Example 180, N-((1R,2S)-2-{[(3aR,4S,9bR)-4-Cyclopropyl-2,3,3a,4,5,9b-hexahydro-1H-pyrrolo[3,2-c]quinolin-1-yl]carbonyl}cyclohexyl)-4-methoxybenzamide]: the IC50 was less than 1 nM.

`O=C(CCc1ccccc1)N[C@@H]1CCCC[C@@H]1C(=O)N1CC[C@@H]2[C@H](C3CC3)Nc3ccccc3[C@@H]21` [Example 181, N-((1R,2S)-2-{[(3aR,4S,9bR)-4-Cyclopropyl-2,3,3a,4,5,9b-hexahydro-1H-pyrrolo[3,2-c]quinolin-1-yl]carbonyl}cyclohexyl)-3-phenylpropanamide]: the IC50 was less than 1 nM.

`O=C(N[C@@H]1CCCC[C@@H]1C(=O)N1CC[C@@H]2[C@H](C3CC3)Nc3ccccc3[C@@H]21)c1ccc(F)cc1` [Example 182, N-((1R,2S)-2-{[(3aR,4S,9bR)-4-Cyclopropyl-2,3,3a,4,5,9b-hexahydro-1H-pyrrolo[3,2-c]quinolin-1-yl]carbonyl}cyclohexyl)-4-fluorobenzamide] came in with an IC50 of less than 1 nM.

With `O=C(Nc1ccccc1)N[C@@H]1CCCC[C@@H]1C(=O)N1CC[C@@H]2[C@H](C3CC3)Nc3ccccc3[C@@H]21` [Example 183, N-((1R,2S)-2-{[(3aR,4S,9bR)-4-Cyclopropyl-2,3,3a,4,5,9b-hexahydro-1H-pyrrolo[3,2-c]quinolin-1-yl]carbonyl}cyclohexyl)-N′-phenylurea], the IC50 was less than 1 nM. Take `COc1ccc(NC(=O)N[C@@H]2CCCC[C@@H]2C(=O)N2CC[C@@H]3[C@H](C4CC4)Nc4ccccc4[C@@H]32)cc1` [Example 184, N-((1R,2S)-2-{[(3aR,4S,9bR)-4-Cyclopropyl-2,3,3a,4,5,9b-hexahydro-1H-pyrrolo[3,2-c]quinolin-1-yl]carbonyl}cyclohexyl)-N′-(4-methoxyphenyl)urea]: the IC50 was less than 1 nM. Next, `CCNC(=O)N[C@@H]1CCCC[C@@H]1C(=O)N1CC[C@@H]2[C@H](C3CC3)Nc3ccccc3[C@@H]21` [Example 185, N-((1R,2S)-2-{[(3aR,4S,9bR)-4-Cyclopropyl-2,3,3a,4,5,9b-hexahydro-1H-pyrrolo[3,2-c]quinolin-1-yl]carbonyl}cyclohexyl)-N′-ethylurea]: less than 10 nM. As for `O=C(Nc1ccccc1)N[C@@H]1CCCC[C@@H]1C(=O)N1CC[C@@H]2[C@H](c3ccsc3)Nc3ccccc3[C@@H]21` [Example 186, N-Phenyl-N′-((1R,2S)-2-{[(3aR,4R,9bR)-4-(3-thienyl)-2,3,3a,4,5,9b-hexahydro-1H-pyrrolo[3,2-c]quinolin-1-yl]carbonyl}cyclohexyl)urea], the IC50 was less than 1 nM.

Turning to `CCNC(=O)N[C@@H]1CCCC[C@@H]1C(=O)N1CC[C@@H]2[C@H](c3ccsc3)Nc3ccccc3[C@@H]21` [Example 187, N-Ethyl-N′-((1R,2S)-2-{[(3aR,4R,9bR)-4-(3-thienyl)-2,3,3a,4,5,9b-hexahydro-1H-pyrrolo[3,2-c]quinolin-1-yl]carbonyl}cyclohexyl)urea], the IC50 is less than 1 nM.

Regarding `CCCCNC(=O)N[C@@H]1CCCC[C@@H]1C(=O)N1CC[C@@H]2[C@H](c3ccsc3)Nc3ccccc3[C@@H]21` [Example 188, N-Butyl-N′-((1R,2S)-2-{[(3aR,4R,9bR)-4-(3-thienyl)-2,3,3a,4,5,9b-hexahydro-1H-pyrrolo[3,2-c]quinolin-1-yl]carbonyl}cyclohexyl)urea], the 50% inhibitory concentration (IC50) is less than 1 nM. To `O=C(N[C@@H]1CCCC[C@@H]1C(=O)N1CC[C@@H]2[C@H](c3ccsc3)Nc3ccccc3[C@@H]21)c1ccc2[nH]nnc2c1` [Example 189, N-((1R,2S)-2-{[(3aR,4R,9bR)-4-(3-Thienyl)-2,3,3a,4,5,9b-hexahydro-1H-pyrrolo[3,2-c]quinolin-1-yl]carbonyl}cyclohexyl)-1H-1,2,3-benzotriazole-5-carboxamide] belongs less than 1 nM; to `NC(=O)c1ccc(C(=O)N[C@@H]2CCCC[C@@H]2C(=O)N2CC[C@@H]3[C@H](c4ccsc4)Nc4ccccc4[C@@H]32)cc1` [Example 190, N-((1R,2S)-2-{[(3aR,4R,9bR)-4-(3-Thienyl)-2,3,3a,4,5,9b-hexahydro-1H-pyrrolo[3,2-c]quinolin-1-yl]carbonyl}cyclohexyl)terephthalamide], less than 1 nM. As for `Cc1cc(C(=O)N[C@@H]2CCCC[C@@H]2C(=O)N2CC[C@@H]3[C@H](c4ccsc4)Nc4ccccc4[C@@H]32)ccc1C(N)=O` [Example 191, 2-Methyl-N^4-((1R,2S)-2-{[(3aR,4R,9bR)-4-(3-thienyl)-2,3,3a,4,5,9b-hexahydro-1H-pyrrolo[3,2-c]quinolin-1-yl]carbonyl}cyclohexyl)terephthalamide], the IC50 is less than 1 nM. `Cc1nc2cc(C(=O)N[C@@H]3CCCC[C@@H]3C(=O)N3CC[C@@H]4[C@H](c5ccsc5)Nc5ccccc5[C@@H]43)ccc2[nH]1` [Example 192, 2-Methyl-N-((1R,2S)-2-{[(3aR,4R,9bR)-4-(3-thienyl)-2,3,3a,4,5,9b-hexahydro-1H-pyrrolo[3,2-c]quinolin-1-yl]carbonyl}cyclohexyl)-1H-benzimidazole-5-carboxamide] returned an IC50 of less than 1 nM.

As to `C[C@]12CCN(C(=O)[C@H]3CCCC[C@H]3NC(=O)c3ccccc3)[C@H]1c1ccccc1N[C@H]2c1ccsc1` [Example 193, N-((1R,2S)-2-{[(3aR,4R,9bR)-3a-Methyl-4-(3-thienyl)-2,3,3a,4,5,9b-hexahydro-1H-pyrrolo[3,2-c]quinolin-1-yl]carbonyl}cyclohexyl)benzamide], the IC50 is less than 1 nM.

The molecule `CCC[C@@H]1Nc2ccccc2[C@H]2[C@@H]1CCN2C(=O)[C@H]1CCCC[C@H]1NC(=O)c1ccc(OC)cc1` [Example 194, 4-Methoxy-N-((1R,2S)-2-{[(3aR,4S,9bR)-4-propyl-2,3,3a,4,5,9b-hexahydro-1H-pyrrolo[3,2-c]quinolin-1-yl]carbonyl}cyclohexyl)benzamide] gave an IC50 of less than 1 nM. In the case of `CCC[C@@H]1Nc2ccccc2[C@H]2[C@@H]1CCN2C(=O)[C@H]1CCCC[C@H]1NC(=O)Nc1ccccc1` [Example 195, N-Phenyl-N′-((1R,2S)-2-{[(3aR,4S,9bR)-4-propyl-2,3,3a,4,5,9b-hexahydro-1H-pyrrolo[3,2-c]quinolin-1-yl]carbonyl}cyclohexyl)urea], the IC50 is less than 1 nM.

As to `CCC[C@@H]1Nc2ccccc2[C@H]2[C@@H]1CCN2C(=O)[C@H]1CCCC[C@H]1NC(=O)Nc1ccc(OC)cc1` [Example 196, N-(4-Methoxyphenyl)-N′-((1R,2S)-2-{[(3aR,4S,9bR)-4-propyl-2,3,3a,4,5,9b-hexahydro-1H-pyrrolo[3,2-c]quinolin-1-yl]carbonyl}cyclohexyl)urea], the IC50 is less than 1 nM. To `CCC[C@@H]1Nc2ccccc2[C@H]2[C@@H]1CCN2C(=O)[C@H]1CCCC[C@H]1NC(=O)Nc1ccc(F)cc1` [Example 197, N-(4-Fluorophenyl)-N′-((1R,2S)-2-{[(3aR,4S,9bR)-4-propyl-2,3,3a,4,5,9b-hexahydro-1H-pyrrolo[3,2-c]quinolin-1-yl]carbonyl}cyclohexyl)urea] belongs less than 1 nM; to `CCC[C@@H]1Nc2ccccc2[C@H]2[C@@H]1CCN2C(=O)[C@H]1CCCC[C@H]1NC(=O)NCC` [Example 198, N-Ethyl-N′-((1R,2S)-2-{[(3aR,4S,9bR)-4-propyl-2,3,3a,4,5,9b-hexahydro-1H-pyrrolo[3,2-c]quinolin-1-yl]carbonyl}cyclohexyl)urea], less than 10 nM. `CCCCNC(=O)N[C@@H]1CCCC[C@@H]1C(=O)N1CC[C@@H]2[C@H](CCC)Nc3ccccc3[C@@H]21` [Example 199, N-Butyl-N′-((1R,2S)-2-{[(3aR,4S,9bR)-4-propyl-2,3,3a,4,5,9b-hexahydro-1H-pyrrolo[3,2-c]quinolin-1-yl]carbonyl}cyclohexyl)urea]: the IC50 was less than 10 nM. `CCC[C@@H]1Nc2ccccc2[C@H]2[C@@H]1CCN2C(=O)[C@H]1CCCC[C@H]1NC(=O)Nc1ccc2c(c1)OCO2` [Example 200, N-1,3-Benzodioxol-5-yl-N′-((1R,2S)-2-{[(3aR,4S,9bR)-4-propyl-2,3,3a,4,5,9b-hexahydro-1H-pyrrolo[3,2-c]quinolin-1-yl]carbonyl}cyclohexyl)urea] yielded an IC50 of less than 1 nM. In the case of `CCC[C@@H]1Nc2ccccc2[C@H]2[C@@H]1CCN2C(=O)[C@H]1CCCC[C@H]1NC(=O)c1ccc2[nH]c(C)nc2c1` [Example 201, 2-methyl-N-((1R,2S)-2-{[(3aR,4S,9bR)-4-propyl-2,3,3a,4,5,9b-hexahydro-1H-pyrrolo[3,2-c]quinolin-1-yl]carbonyl}cyclohexyl)-1H-benzimidazole-5-carboxamide], the IC50 is less than 1 nM. Next, `CCC[C@@H]1Nc2ccccc2[C@H]2[C@@H]1CCN2C(=O)[C@H]1CCCC[C@H]1NC(=O)c1ccc(C#N)cc1` [Example 202, 4-Cyano-N-((1R,2S)-2-{[(3aR,4S,9bR)-4-propyl-2,3,3a,4,5,9b-hexahydro-1H-pyrrolo[3,2-c]quinolin-1-yl]carbonyl}cyclohexyl)benzamide]: less than 1 nM.

Source of the values: patent US7943770B2, “Fused quinoline derivative and use thereof” (Takeda Pharmaceutical Company Limited, priority 2004, dated 2011).
